# Measured values published in patent publication US20240158442A1, “MULTIFUNCTIONAL POLYPEPTIDE AND APPLICATION THEREOF IN FIELD OF MEDICINES” (Wuhan Innerse Pharmaceutical Inc., priority 2021, published 2024).
# Square brackets hold non-standard residues; d marks the D form. Ends that are not written are not given here. βAla = NCCC(=O)O
# Assays:
# [1] = test system: rats with cerebral ischemia (middle cerebral artery occlusion, MCAO); test: MCAO rat model of cerebral ischemia, TTC staining, cerebral infarct volume (Example 5); type: in vivo, SD rats; conditions: for infarct volume (TTC quantification), mean value: 3 mg/kg via tail vein 1-2 h after suturation, TTC after 22-24 h, 6 rats per group; for infarct volume (TTC quantification), rat No. 1: individual animal No. 1; for infarct volume (TTC quantification), rat No. 2: individual animal No. 2; for infarct volume (TTC quantification), rat No. 3: individual animal No. 3; for infarct volume (TTC quantification), rat No. 4: individual animal No. 4; for infarct volume (TTC quantification), rat No. 5: individual animal No. 5; for infarct volume (TTC quantification), rat No. 6: individual animal No. 6
# Method: (§1) In order to determine the application of the synthetic peptides provided by the present invention in neurological diseases, the present invention uses SD rats as experimental objects, and performs middle cerebral artery occlusion method (MCAO) to prepare rat model of cerebral ischemia. These rats were injected drugs intravenously 1-2 hours after ischemia, and a behavioral observation and scoring was conducted for each animal after 22-24 hours. After the behavioral observation, the experimental rats were euthanized and their brains were removed, cut to sections and stained with TTC for quantitative analysis, and the cerebral infarct volume % was calculated.
# • Small-animal monitor: VT200 from Rongxianda Technology Co., Ltd., Shenzhen, China. • SD rats: 180-200 g, from China National Institutes for Food and Drug Identification. • Suture emboli: Maiyue Bio (M8507). • TTC staining solution: Yuanye Bio (R24053).
# (§2) The experimental SD rat was weighed and anesthetized with chloral hydrate. After anesthesia, the limbs of the rat were fixed, and the rat was placed in a supine position, connected to the small-animal monitor, and monitored for important physiological parameters such as body temperature, blood pressure and heart rate, etc. The rat's neck was shaved and disinfected with 75% alcohol cotton ball. A middle incision of about 2 cm length was then made on the neck of the experimental rat, and the submandibular gland of the rat was bluntly separated while avoiding damage to the gland. Then, the left common carotid artery (CCA) of the experimental rat was bluntly separated, and the internal carotid artery (ICA) and external carotid artery (ECA) were carefully separated upward along the CCA. Any damage to vagus nerves was avoided during the separation. The CCA and ICA were clamped respectively with two artery clamps, and the distal end of the ECA was cut off and a silicone suture emboli was inserted into the ECA “port” to the ICA artery clamp, then the artery clamp was quickly loosened and the tip of the suture emboli was put in through the artery clamp quickly before clamping the ICA again. This step was repeated and the suture emboli was put in further until the black mark of the suture emboli reached the bifurcation of the ECA and ICA, and the tip of the suture emboli blocked the middle cerebral artery and then the ECA “port” and the suture emboli was tied tightly using a thread in order to prevent the “escape” of suture emboli or bleeding after the rat waked up. The artery clamps on the CCA and ICA were then loosed and removed to restore the tissue to its original position, and an appropriate amount of penicillin was applied to prevent wound infection. A medical suture needle with thread was used to suture, and the wound was disinfected using povidone-iodine again after the suturation. The experimental rats were monitored with the small-animal monitor to evaluate if their physiological parameters were normal, and the rats were placed on a small-animal electric blanket to keep their body temperature until they waked up, and placed in animal cages.
# (§3) The drug to be tested was prepared as 3 mg/mL solution. The drug was dosed via tail vein 1-2 h after the suturation.
# (§4) During the drug administration, the rat was fastened with a fastening device, and the drug to be tested was injected into the tail vein of the rat at 3 mg/kg using 1 mL syringe, the drug was injected slowly to reduce the cardiopulmonary load of the experimental rat.
# (§5) The animals were divided into different test groups, with 6 rats for each group. Model group: After the suturation, an equal amount of normal saline was given via tail vein; Drug groups S1 (NA1), S4 (β-Ala-His-Lys-Ala-Pro) and S5 (Pro-Ala-Lys-β-Ala-His): administered via tail vein after the suturation;
# After the behavioral observation, experimental rats were euthanized and their brains were removed. […]
# [2] = test system: rats with cerebral ischemia (middle cerebral artery occlusion, MCAO); test: MCAO rat model of cerebral ischemia, behavioral observation and scoring (Example 5); type: in vivo, SD rats; conditions: 3 mg/kg via tail vein; for behavioral score, rat No. 1: individual animal No. 1; for behavioral score, rat No. 2: individual animal No. 2; for behavioral score, rat No. 3: individual animal No. 3; for behavioral score, rat No. 4: individual animal No. 4; for behavioral score, rat No. 5: individual animal No. 5; for behavioral score, rat No. 6: individual animal No. 6; for behavioral score, mean value: scored 22-24 h after suturation, scale 0-5, 6 rats per group
# Method: as §1, §2, §3, §4, §5
# The behavioral observation and scoring were performed on each animal 22-24h after the suturation.
# [3] = test system: rat cerebral ischemic stroke (MCAO, reperfusion 120 min after ischemia); test: Dose-effect experiment, suture-embolized MCAO ischemia-reperfusion model, TTC staining, cerebral infarction size (Example 6); type: in vivo, Sprague-Dawley (SD) rats; conditions: for Infarct size (infarct tissue weight as percentage of whole brain weight): model control 24.84 ± 3.39
# Description: Preparation method: an amount of test substance was weighted and fully dissolved using water for injection to the required concentration, and was filtered with a 0.22 μm filter to sterilize.
# Animal strain: Sprague-Dawley (SD) rats; grade: SPF grade. Body weight: 200.01-240.03 g when the accommodation started, 213.79-278.79 g when grouping. Age: about 5-7 weeks old during the accommodation, and 6-8 weeks old when grouping. Source: SPF (Beijing) Biotechnology Co., Ltd., Beijing, China.
# A. Isolating and exposing blood vessels: the skin of the surgical area was shaved, and the rat was placed under a surgical microscope. The skin of the rat was cut along the midline with ophthalmic scissors, with a cut of about 2 cm length. Through the right neck of the rat, the muscle tissue of the right neck was bluntly isolated and opened with a microforcep to expose the right common carotid artery (CCA), and then isolated upward along the common carotid artery to further expose the external carotid artery (ECA) and internal carotid artery (ICA);
# B. The ECA was ligated and the ICA was temporarily clamped; the proximal end and distal end of CCA were threaded separately, the distal end was tied tightly and the proximal end was tied with a loose knot, and a small incision was made between the two threads;
# Inserting the suture emboli: A No. 4-0 suture emboli was inserted through the incision of CCA, pushed slowly and gently into the internal carotid artery, and stopped at the artery clamp of ICA, the pre-set thread was tied tightly (to avoid severe bleeding when pushing the suture emboli), then the artery clamp that blocked the blood flow of ICA was removed, and the suture emboli was immediately pushed into ICA until entering into the cranium. […]
# D. Fixing the suture emboli and suturing the incision: if one felt slight resistance when the suture emboli was inserted about 18 mm depth from the bifurcation of the common carotid artery, it means that the tip of the suture emboli has entered into the cerebral anterior artery (ACA), and the side wall of the suture emboli has blocked the opening of the middle cerebral artery; at the moment, the insertion was terminated and the time was recorded. […]
# [4] = test system: rat cerebral ischemic stroke (MCAO, reperfusion 120 min after ischemia); test: Dose-effect experiment, MCAO ischemia-reperfusion model, rat neurological function score (NSS); type: in vivo, Sprague-Dawley (SD) rats; conditions: 3 mg/kg i.v., D 2 = 1 day after surgery, model control 8.62 ± 0.84
# Method: The establishment of rat model: the rats were placed in an anesthesia induction box filled with 3.0% isoflurane for anesthesia induction. Anesthesia-induced animals were transferred to the operating table, and anesthesia was maintained with 2.0%˜2.5% isoflurane at 200 mL/min using a small-animal gas anesthesia machine, and the eyelid reflex and pain response of the rats were observed. The surgery can be started only after the eyelid reflex response and the pain response on limbs and tail disappeared. […]
# • Measurement time: 24 hours before and after modeling; • Animals measured: all the surviving experimental animals planned to be measured; • Measurement method: a motor function test, sensory test, balance test, and reflex and abnormal behavior test were performed on animals, according to the rat neurological function score scale (NSS) for details.
# The main purpose of clinical treatment for cerebral infarction is to restore the patient's neurological function as much as possible and to improve the quality of life after stroke. In this experiment, the animals were evaluated with Bederson scoring 1 hour after ischemia to evaluate the ischemia in animals. One day after modeling, the neurobehavioral function of animals was evaluated with NSS scoring scale in order to evaluate the effect of test substance in improving the neurological function of animals.
# [5] = test system: experimental cerebral ischemia-reperfusion in animals (cynomolgus monkeys); conditions: preclinical ischemic stroke model; cited from earlier work
# [6] = test system: patients with acute ischemic stroke (AIS) undergoing endovascular thrombectomy; conditions: intravenous injection 2.6 mg/kg; cited from earlier work
# [7] = Dose-effect experiment, body weight of MCAO model animals; conditions: 3 mg/kg i.v.; D 2 = 1 day after surgery
# Method: Measurement time: the body weight was measured at least twice during the accommodation, and each batch of rats were weighed once on the day before the surgery and on the day of dissection to calculate the amount of drug administered and the anesthetic applied; the body weight was measured twice a week after the surgery.
# The effect of test substance on the weight of model animals: cerebral ischemia-reperfusion is an acute injury model, wherein the weight of experimental animals will drop dramatically after MCAO modeling. Thus, the weight of experimental animals is one of the most basic sensitive parameters to comprehensively reflect the health status of animals.
# [8] = 3 mg/kg i.v. once within 10 min after reperfusion, TTC 24 h after treatment
# [9] = listed as β-Ala-His-Lys-Ala-Pro
substance,measurement,setting,value
"YGRKKRRQRRRKLSSIESDV [Example S1, nerinetide]","infarct volume (TTC quantification), mean value",[1],0.157
same,"infarct volume (TTC quantification), mean value",[1]; listed as NA1,0.157±0.040
same,"infarct volume (TTC quantification), rat No. 1",[1]; 3 mg/kg via tail vein,0.187
same,"infarct volume (TTC quantification), rat No. 2",[1]; 3 mg/kg via tail vein,0.218
same,"infarct volume (TTC quantification), rat No. 3",[1]; 3 mg/kg via tail vein,0.153
same,"infarct volume (TTC quantification), rat No. 4",[1]; 3 mg/kg via tail vein,0.145
same,"infarct volume (TTC quantification), rat No. 5",[1]; 3 mg/kg via tail vein,0.107
same,"infarct volume (TTC quantification), rat No. 6",[1]; 3 mg/kg via tail vein,0.134
same,"behavioral score, rat No. 1",[2],2 points
same,"behavioral score, rat No. 2",[2],2 points
same,"behavioral score, rat No. 3",[2],2 points
same,"behavioral score, rat No. 4",[2],2 points
same,"behavioral score, rat No. 5",[2],1 points
same,"behavioral score, rat No. 6",[2],3 points
same,"behavioral score, mean value",[2],2.0 points
same,"behavioral score, mean value",[2]; listed as NA1,2.0±0.6 points
same,Infarct weight,[3]; [8],0.24 ± 0.02 g
same,Infarct size (infarct tissue weight as percentage of whole brain weight),[3]; [8],16.74±3.14%
same,Infarct size (infarct tissue weight as percentage of whole brain weight),"[3]; 3 mg/kg i.v. once within 10 min after reperfusion, TTC 24 h after treatment, listed as Positive drug",16.74 ± 3.14 %
same,Inhibition rate of cerebral infarction,"[3]; 3 mg/kg i.v., calculated from infarct size versus model control group",33%
same,NSS score D 2,[4]; listed as Positive drug,8.00 ± 0.76
same,NSS score D 2,[4]; listed as positive control,8.00±0.76
same,functional prognosis,[5],improve the functional prognosis
same,infarct size of experimental cerebral ischemia-reperfusion,[5],reduce the infarct size
same,patient's prognosis,[6],improved patient's prognosis
same,Weight D 2,[7],203.7 ± 10.94 g
β-Ala-His-Lys-Ala-Pro ([βAla]HKAP) [Example S4],"infarct volume (TTC quantification), mean value",[1],0.155
same,"infarct volume (TTC quantification), mean value",[1]; [9],0.155±0.044
same,"infarct volume, statistical comparison with S1","[1]; 3 mg/kg via tail vein, compared with S1 (NA1) 3 mg/kg",not statistically different from S1
same,"infarct volume (TTC quantification), rat No. 1",[1]; 3 mg/kg via tail vein,0.233
same,"infarct volume (TTC quantification), rat No. 2",[1]; 3 mg/kg via tail vein,0.157
same,"infarct volume (TTC quantification), rat No. 3",[1]; 3 mg/kg via tail vein,0.137
same,"infarct volume (TTC quantification), rat No. 4",[1]; 3 mg/kg via tail vein,0.171
same,"infarct volume (TTC quantification), rat No. 5",[1]; 3 mg/kg via tail vein,0.118
same,"infarct volume (TTC quantification), rat No. 6",[1]; 3 mg/kg via tail vein,0.116
same,"behavioral score, statistical comparison with S1",[2]; compared with S1 (NA1) 3 mg/kg,not statistically different from S1
same,"behavioral score, rat No. 1",[2],3 points
same,"behavioral score, rat No. 2",[2],2 points
same,"behavioral score, rat No. 3",[2],3 points
same,"behavioral score, rat No. 4",[2],2 points
same,"behavioral score, rat No. 5",[2],1 points
same,"behavioral score, rat No. 6",[2],1 points
same,"behavioral score, mean value",[2],2.0 points
same,"behavioral score, mean value",[2]; [9],2.0±0.9 points
